The test system of data set [1] is Staphylococcus aureus (ATCC 25923). As to the kind of experiment: Intrinsic antimicrobial activity (MIC) against S. aureus. The class given is cell-based. Conditions: ATCC25923, S. aureus ATCC 25923, mean (n = 3), read-out: MIC S. a. An outline of the steps:
(§1)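 MIC values come from two sources: bacteria tested by previously reported protocols, and Candida and Cryptococcus tested at the Community for Open Antimicrobial Drug Discovery under standard conditions.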

The test system of data set [2] is MRSA (ATCC 43300). The data set is described as follows: Intrinsic antimicrobial activity (MIC) against MRSA. The class given is cell-based. As to conditions: Staphylococcus aureus, MRSA ATCC 43300; mean (n = 2); read-out: MIC MRSA. An outline of the steps: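 Bacterial susceptibility was determined following previously reported protocols. The antifungal evaluations were carried out at the Community for Open Antimicrobial Drug Discovery (University of Queensland, Australia) under its standard protocols.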

The subject of data set [3] is Pseudomonas aeruginosa (ATCC 27853). The data set is described as follows: Intrinsic antimicrobial activity (MIC) against P. aeruginosa. The class given is cell-based. Conditions: ATCC27853, P. aeruginosa ATCC 27853, mean (n = 3), read-out: MIC P. a. The gist of the method:
as §1

Data set [4] relates to Escherichia coli (ATCC 25922). The data set is described as follows: Intrinsic antimicrobial activity (MIC) against E. coli. In kind it is cell-based. As to conditions: ATCC25922, E. coli ATCC 25922, mean (n = 3), read-out: MIC E. c. The gist of the method:
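Antibacterial MICs by established in-house protocol; yeast MICs run externally at CO-ADD, University of Queensland, per their standard screening protocols.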

Data set [5] deals with Klebsiella pneumoniae (ATCC 700603). The data set is described as follows: Intrinsic antimicrobial activity (MIC) against K. pneumoniae. In kind it is cell-based. Conditions: ATCC700603, K. pneumoniae ATCC 700603, mean (n = 2), read-out: MIC K. p. The procedure: (§2) The susceptibility of bacterial strains Staphylococcus aureus (ATCC 25923), Escherichia coli (ATCC 25922) and Pseudomonas aeruginosa (ATCC 27853) to antibiotics and compounds was determined using previously reported protocols. Additional antimicrobial evaluation against MRSA (ATCC 43300), Klebsiella pneumoniae (ATCC 700603), Acinetobacter baumannii (ATCC 19606), Candida albicans (ATCC 90028) and Cryptococcus neoformans (ATCC 208821) was undertaken at the Community for Open Antimicrobial Drug Discovery at The University of Queensland (Australia) according to their standard protocols, as reported previously.

For data set [6], the system named is Acinetobacter baumannii (ATCC 19606). The data set is described as follows: Intrinsic antimicrobial activity (MIC) against A. baumannii. In kind it is cell-based. Conditions: ATCC19606, A. baumannii ATCC 19606, mean (n = 2), read-out: MIC A. b. On the procedure:
as §2

In data set [7] the test system is Candida albicans (ATCC 90028). As to the kind of experiment: Intrinsic antifungal activity (MIC) against C. albicans. The class given is cell-based. As to conditions: ATCC90028, C. albicans ATCC 90028, mean (n = 2), read-out: MIC C. a. An outline of the steps: (§3)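 Susceptibility testing: bacteria per earlier published methods; fungi per CO-ADD standard protocols (University of Queensland).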

The test system of data set [8] is Cryptococcus neoformans (ATCC 208821). The data set is described as follows: Intrinsic antifungal activity (MIC) against C. neoformans. In kind it is cell-based. As to conditions: ATCC208821, C. neoformans ATCC 208821, mean (n = 2), read-out: MIC C. n. The gist of the method:
as §3

Data set [9] is described as follows: Cytotoxicity assay. Conditions: human; HEK293 cells; mean (n = 2); read-out: Cytotoxicity: concentration of compound at 50% cytotoxicity (IC50). The class given is cell-based. The procedure:
Cytotoxicity assays were conducted using the protocols previously reported.

Data set [10] relates to human red blood cells. As to the kind of experiment: Hemolytic assay. The class given is cell-based. As to conditions: mean (n = 2). On the procedure: Hemolysis assays were conducted using the protocols previously reported.
In data set [11] the test system is P. aeruginosa ATCC 27853. The data set is described as follows: Enhancement of doxycycline action against P. aeruginosa. In kind it is cell-based, Pseudomonas aeruginosa. Conditions: doxycycline at 4.5 µM. On the procedure:
(§4) Antibiotic enhancer concentrations were determined using previously reported protocols.

Data set [12] concerns E. coli ATCC 25922. The data set is described as follows: Enhancement of erythromycin action against E. coli. Conditions: erythromycin at 10.9 µM. The class given is cell-based, Escherichia coli. The procedure: as §4

For the molecule `O=C(Cc1c[nH]c2ccccc12)NCCCNCCCCCCCCCCCCNCCCNC(=O)Cc1c[nH]c2ccccc12.O=C(O)C(F)(F)F.O=C(O)C(F)(F)F` [Compound 14f, N^1,N^12-Bis(3-(2-(1H-indol-3-yl)acetamido)propyl)dodecane-1,12-diaminium 2,2,2-trifluoroacetate], the MIC (as a rule, the smallest concentration in the dilution series that meets the test's criterion for growth inhibition) is 3.65 µM in data set [1]; ≤ 0.29 µM in data set [2]; 58.3 µM in data set [3]; 29.2 µM in data set [4]; > 37 µM in data set [5]; > 37 µM in [6]. Further, the MIC in data set [7] and in data set [8] was ≤ 0.29 µM each time. Further, in data set [9], the IC50 was > 37 µM. Besides, the “Hemolysis: concentration of compound at 10% hemolytic activity (HC10)” value (“Hemolysis … at 10% hemolytic activity (HC10)” for short) in data set [10] was ≤0.29 µM. Also, in data set [11], the “Dox/P. a fold change (ratio between intrinsic MIC of the test compound and combination MIC)” value was found to be 4 fold. Moreover, the “Dox/P. a: concentration required to restore doxycycline activity (combination MIC)” value (“Dox/P. a: concentration required” for short) in [11] was 14.6 µM. In addition, the “Eryth/E. c: concentration required to restore erythromycin activity (combination MIC)” value (from here on “Eryth/E. c: concentration required”) in [12] was found to be 14.6 µM.
For `O=C(Cc1c[nH]c2ccc(Br)cc12)NCCCNCCCCCCNCCCNC(=O)Cc1c[nH]c2ccc(Br)cc12.O=C(O)C(F)(F)F.O=C(O)C(F)(F)F` [Compound 15b, N^1,N^6-Bis(3-(2-(5-bromo-1H-indol-3-yl)acetamido)propyl)hexane-1,6-diaminium 2,2,2-trifluoroacetate], the MIC in data set [1] was 13.4 µM; in [2], < 0.2 µM; in data set [3] it was 215 µM; in data set [4], 26.9 µM; in [5], > 34 µM; in data set [6] it was > 34 µM. The MIC in data set [7] was 2.15 µM; in data set [8], < 0.2 µM. Moreover, in data set [9], the IC50 was > 34 µM. Also, in data set [10], the “Hemolysis … at 10% hemolytic activity (HC10)” value was >34 µM. Moreover, the “Dox/P. a fold change (ratio between intrinsic MIC of the test compound and combination MIC)” value in [11] amounted to 8 fold. For the same molecule, in data set [11], the “Dox/P. a: concentration required” value turned out to be 26.9 µM. The “Eryth/E. c: concentration required” value in data set [12] came out at 53.7 µM.
With `O=C(Cc1c[nH]c2ccc(Br)cc12)NCCCNCCCCCCCCNCCCNC(=O)Cc1c[nH]c2ccc(Br)cc12.O=C(O)C(F)(F)F.O=C(O)C(F)(F)F` [Compound 15d, N^1,N^8-Bis(3-(2-(5-bromo-1H-indol-3-yl)acetamido)propyl)octane-1,8-diaminium 2,2,2-trifluoroacetate], the MIC in data set [1] was 13 µM; in data set [2], ≤ 0.26 µM; in [3], > 209 µM; in [4] it was 26.1 µM; in data set [5], > 33 µM; in [6], > 33 µM. Besides, the MIC in data set [7] was 2.09 µM; in [8], ≤ 0.26 µM. Further, in data set [9], the IC50 is > 33 µM. Further, the “Hemolysis … at 10% hemolytic activity (HC10)” value in [10] was 10.1 µM. Moreover, the “Dox/P. a fold change (ratio between intrinsic MIC of the test compound and combination MIC)” value in [11] was > 4 fold. The “Dox/P. a: concentration required” value in [11] stood at 52.2 µM. The “Eryth/E. c: concentration required” value in data set [12] is 52.2 µM.
Regarding `O=C(Cc1c[nH]c2ccc(Br)cc12)NCCCNCCCCCCCCCCNCCCNC(=O)Cc1c[nH]c2ccc(Br)cc12.O=C(O)C(F)(F)F.O=C(O)C(F)(F)F` [Compound 15e, N^1,N^10-Bis(3-(2-(5-bromo-1H-indol-3-yl)acetamido)propyl)decane-1,10-diaminium 2,2,2-trifluoroacetate], the MIC was 6.33 µM in [1]; ≤ 0.25 µM in data set [2]; 50.7 µM in [3]; 12.7 µM in data set [4]; > 32 µM in data set [5]; > 32 µM in data set [6]. Further, the MIC in [7] and in data set [8] was ≤ 0.25 µM each time. Moreover, the IC50 in [9] is > 32 µM. Besides, the “Hemolysis … at 10% hemolytic activity (HC10)” value in data set [10] is given as ≤0.25 µM. For the same molecule, in [11], the “Dox/P. a fold change (ratio between intrinsic MIC of the test compound and combination MIC)” value is on record as 4 fold. Moreover, the “Dox/P. a: concentration required” value in [11] worked out at 12.7 µM. Besides, the “Eryth/E. c: concentration required” value in data set [12] stood at 12.7 µM.
`O=C(Cc1c[nH]c2ccc(Br)cc12)NCCCNCCCCCCCCCCCCNCCCNC(=O)Cc1c[nH]c2ccc(Br)cc12.O=C(O)C(F)(F)F.O=C(O)C(F)(F)F` [Compound 15f, N^1,N^12-Bis(3-(2-(5-bromo-1H-indol-3-yl)acetamido)propyl)dodecane-1,12-diaminium 2,2,2-trifluoroacetate]: the MIC in data set [1] is 6.16 µM; in data set [2] it was ≤ 0.25 µM; in data set [3], 197 µM; in data set [4], 12.3 µM; in data set [5] it was > 32 µM; in data set [6], 7.88 µM. Also, the MIC in [7] and in data set [8] was ≤ 0.25 µM throughout. Besides, the IC50 in [9] came to 4.75 µM. Besides, the “Hemolysis … at 10% hemolytic activity (HC10)” value in data set [10] is listed as ≤0.25 µM. The “Dox/P. a fold change (ratio between intrinsic MIC of the test compound and combination MIC)” value in data set [11] turned out to be 2 fold. In addition, the “Dox/P. a: concentration required” value in [11] was 98.5 µM. Moreover, the “Eryth/E. c: concentration required” value in [12] is recorded as 24.6 µM.
Take `COc1ccc2[nH]cc(CC(=O)NCCCNCCCCCCNCCCNC(=O)Cc3c[nH]c4ccc(OC)cc34)c2c1.O=C(O)C(F)(F)F.O=C(O)C(F)(F)F` [Compound 16b, N^1,N^6-Bis(3-(2-(5-methoxy-1H-indol-3-yl)acetamido)propyl)hexane-1,6-diaminium 2,2,2-trifluoroacetate]: the MIC in data set [1] was 50 µM; in data set [2] it was 38 µM; in [3], > 200 µM; in [4], 100 µM; in data set [5], > 38 µM; in data set [6] it was > 38 µM. Also, the MIC in [7] was > 38 µM; in data set [8] it was ≤ 0.3 µM. The IC50 in data set [9] was > 38 µM. Besides, the “Hemolysis … at 10% hemolytic activity (HC10)” value in data set [10] is given as >38 µM. In addition, in data set [11], the “Dox/P. a fold change (ratio between intrinsic MIC of the test compound and combination MIC)” value is given as > 8 fold. Further, the “Dox/P. a: concentration required” value in [11] is on record as 25 µM. The “Eryth/E. c: concentration required” value in data set [12] worked out at 50 µM.
As to `COc1ccc2[nH]cc(CC(=O)NCCCNCCCCCCCNCCCNC(=O)Cc3c[nH]c4ccc(OC)cc34)c2c1.O=C(O)C(F)(F)F.O=C(O)C(F)(F)F` [Compound 16c, N^1,N^7-Bis(3-(2-(5-methoxy-1H-indol-3-yl)acetamido)propyl)heptane-1,7-diaminium 2,2,2-trifluoroacetate], the MIC in data set [1] was > 200 µM; in data set [2] it was > 38 µM; in [3] it was > 200 µM; in [4] it was 25 µM; in [5], > 38 µM; in data set [6], > 38 µM. Moreover, the MIC was > 38 µM in data set [7] and 2.36 µM in data set [8]. Moreover, the IC50 in data set [9] is > 38 µM. Moreover, in data set [10], the “Hemolysis … at 10% hemolytic activity (HC10)” value is given as >38 µM. Further, the “Dox/P. a: concentration required” value in [11] came to 12.5 µM. Besides, the “Eryth/E. c: concentration required” value in data set [12] came to 50 µM.
For `COc1ccc2[nH]cc(CC(=O)NCCCNCCCCCCCCNCCCNC(=O)Cc3c[nH]c4ccc(OC)cc34)c2c1.O=C(O)C(F)(F)F.O=C(O)C(F)(F)F` [Compound 16d, N^1,N^8-Bis(3-(2-(5-methoxy-1H-indol-3-yl)acetamido)propyl)octane-1,8-diaminium 2,2,2-trifluoroacetate], the MIC in data set [1] is 25 µM; in [2] it was 2.32 µM; in [3], 100 µM; in data set [4], 6.25 µM; in data set [5] it was > 37 µM; in [6], > 37 µM. In addition, the MIC was > 37 µM in [7] and ≤ 0.29 µM in [8]. Further, in [9], the IC50 was > 37 µM. Further, the “Hemolysis … at 10% hemolytic activity (HC10)” value in [10] was >37 µM. Also, the “Dox/P. a: concentration required” value in data set [11] turned out to be 6.25 µM. Also, the “Eryth/E. c: concentration required” value in [12] amounted to 6.25 µM.
